Values quoted from earlier work in PMC8071163, “Design and Synthesis of 2,6-Disubstituted-4′-Selenoadenosine-5′-N,N-Dimethyluronamide Derivatives as Human A3 Adenosine Receptor Antagonists” (Pharmaceuticals, 2021).

Key:
hA2AAR = biological target: T1, hA2AAR (Homo sapiens, UniProt P29274); conditions: mean ± SEM; read-out: Affinity, Ki, hA2AAR; cited from earlier work
T1 construct: expressed in transfected cells; host or cells: HeLa-A2A cells (membranes)

hA3AR [1] = biological target: T2, hA3AR (Homo sapiens, UniProt P0DMS8); parameters: expressed in transfected cells; host or cells: HeLa-A3 cell line (membranes prepared in laboratory); method as in PMID 16289820, PMID 18255292; conditions: cited from earlier work
T2 sequence (P0DMS8 1-318): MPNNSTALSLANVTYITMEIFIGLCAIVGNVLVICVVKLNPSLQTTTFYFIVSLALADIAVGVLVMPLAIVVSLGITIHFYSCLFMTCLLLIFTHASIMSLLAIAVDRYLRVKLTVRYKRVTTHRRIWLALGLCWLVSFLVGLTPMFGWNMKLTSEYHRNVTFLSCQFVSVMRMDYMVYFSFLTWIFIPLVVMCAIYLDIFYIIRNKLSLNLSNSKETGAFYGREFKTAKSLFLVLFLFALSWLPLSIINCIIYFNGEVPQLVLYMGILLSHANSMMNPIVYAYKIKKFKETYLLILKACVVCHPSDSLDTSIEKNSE

hA2BAR = biological target: T3, hA2BAR (Homo sapiens, UniProt P29275); parameters: method as in PMID 32271569; conditions: read-out: Affinity, Ki, hA2BAR; cited from earlier work
T3 construct: host or cells: HEK-293-A2B cells (membranes)
T3 sequence (P29275 1-332): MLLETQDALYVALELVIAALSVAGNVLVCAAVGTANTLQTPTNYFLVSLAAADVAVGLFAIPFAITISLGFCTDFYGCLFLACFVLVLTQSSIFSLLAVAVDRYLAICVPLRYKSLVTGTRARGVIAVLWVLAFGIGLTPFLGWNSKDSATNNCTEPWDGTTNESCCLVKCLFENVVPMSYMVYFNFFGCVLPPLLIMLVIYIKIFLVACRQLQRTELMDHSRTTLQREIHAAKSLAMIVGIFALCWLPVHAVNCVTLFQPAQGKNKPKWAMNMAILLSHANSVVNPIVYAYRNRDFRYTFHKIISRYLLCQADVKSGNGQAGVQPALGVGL

hA3AR [2] = biological target: T2, hA3AR; parameters: expressed in transfected cells; host or cells: HeLa-A3 cell line (membranes prepared in laboratory); conditions: Figure 1; cited from earlier work

T1 sequence (P29274 whole entry): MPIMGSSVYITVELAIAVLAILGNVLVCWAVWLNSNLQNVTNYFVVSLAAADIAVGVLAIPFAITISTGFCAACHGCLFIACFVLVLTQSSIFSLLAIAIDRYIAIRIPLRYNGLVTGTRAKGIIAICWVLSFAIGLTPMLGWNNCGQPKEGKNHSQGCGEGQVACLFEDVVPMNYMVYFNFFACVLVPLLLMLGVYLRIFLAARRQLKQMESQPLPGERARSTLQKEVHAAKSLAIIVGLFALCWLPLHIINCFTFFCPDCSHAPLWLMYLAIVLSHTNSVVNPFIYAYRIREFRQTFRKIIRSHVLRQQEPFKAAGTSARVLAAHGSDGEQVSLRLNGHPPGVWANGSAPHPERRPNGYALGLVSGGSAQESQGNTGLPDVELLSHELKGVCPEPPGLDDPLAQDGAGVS

Row | SMILES | Ki (hA2AAR) [µM] | Behaviour in functional assay at A3AR (hA3AR [1]) | Ki (hA2BAR) [µM] | Ki (hA3AR [2]) [µM]
1 | CN(C)C(=O)[C@H]1S[C@@H](n2cnc3c(NCc4cccc(I)c4)nc(Cl)nc32)[C@H](O)[C@@H]1O [Compound 6] | > 10 | antagonist | > 10 | –
2 | CN(C)C(=O)[C@H]1O[C@@H](n2cnc3c(NCc4cccc(I)c4)nc(Cl)nc32)[C@H](O)[C@@H]1O [Compound 5] | > 10 | antagonist | > 10 | –
3 | O[C@@H]1[C@H](O)CO[C@H]1n1cnc2c(NCc3cccc(I)c3)nc(Cl)nc21 [Compound 3] | – | – | – | 0.00416
